These results are taken from patent US20040235855A1, “Phospholipase C inhibitors for use in treating inflammatory disorders” (priority 2003, published 2004).

Experiment [1] relates to zymosan-induced peritonitis. As to the kind of experiment: Zymosan-induced peritonitis mouse model. It counts as in vivo. The note with it: 30 mpk dose administered i.p. An excerpt: The zymosan-induced peritonitis model was used to test Compound 38 (as described in Rao T S, Currie J L, Shaffer A F and Isakson P C, In vivo Characterization of Zymosan-Induced Mouse Peritoneal Inflammation, J. Pharm. Exptl. Ther., 1994, 269: 917-925).

Experiment [2] addresses T1, human PLC-β2 (Homo sapiens, UniProt Q00722).
T1 construct: made in house; host or cells: Sf9 cells (Spodoptera frugiperda), recombinant baculovirus
Description: PLC assay using FlashPlates (96-well, immobilized [3H]PIP2 substrate). It is filed as biochemical. Particulars: purified recombinant human PLC-β2 or cytosolic human PLC-β2; hydrolysis of [3H]PIP2. In outline: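 Purified recombinant human PLC-β2 (Sf9 baculovirus) or cytosolic PLC-β2 from HL-60 cells hydrolysed [3H]PIP2 immobilised on phospholipid FlashPlates. Reactions ran in 50 mM Tris/HCl pH 7.2 with EDTA, KCl, LiCl, 0.04% DOC and 2 mM CaCl2. Activity was read as loss of bound radioactivity by scintillation counting.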

Experiment [3] relates to adjuvant-induced arthritis. Description: Adjuvant-induced arthritis rat model. It is filed as in vivo. Particulars: administered i.p. An excerpt: The adjuvant-induced arthritis rat model was used to test Compound 38 (as described in Anderson G D, Hauser S D, McGarity K L, Bremer M E, Isakson P C and Gregory S A, Selective Inhibition of Cyclooxygenase (Cox)-2 Reverses Inflammation and Expression of Cox-2 and Interleukein 6 in Rat Adjuvant Arthritis, J. Clin. Invest., 1996, 97:2672-2679).

The subject of experiment [4] is PMA-induced ear edema. Description: Acute PMA-induced ear edema mouse model. It counts as in vivo. An excerpt: The acute PMA-induced ear edema mouse model was used to test compounds of the present […] (as described in Carlson R P, O'Neill-Davis L, Chang J. and Lewis A J, Modulation of Mouse Ear Edema by Cyclooxygenase and Lipoxygenase Inhibitors and Other Pharmacologic Agents, Agents and Actions, 1985, 17:197-204).

Experiment [5] concerns carageenan-induced paw edema. Description: Carageenan-induced paw edema rat model. It counts as in vivo. An excerpt:
The carageenan-induced paw edema rat model was used to test Compound 38 (as described in Vinegar R, Truax J F, Selph J L, Johnston P R, Venable A L and McKenzie K K, Pathway to Carrageenan-Induced Inflammation in the Hind Limb of the Rat, Fed. Proc., 1987, 46:118-126).

Experiment [6] deals with PMA-induced ear edema. Description: Chronic PMA-induced ear edema mouse model. It is filed as in vivo. Particulars: 0.5 mg dose applied topically. From the text:
The chronic PMA-induced ear edema mouse model was used to test Compound 38 (as described in Stanley P L, Steiner S, Havens M and Tramposch K M, Mouse Skin Inflammation Induced by Multiple Topical Applications of 12-O-Tetradecanoylphorbol-13-acetate, Skin Pharmacol., 1991, 4: 262-271).

T1 sequence (Q00722 whole entry): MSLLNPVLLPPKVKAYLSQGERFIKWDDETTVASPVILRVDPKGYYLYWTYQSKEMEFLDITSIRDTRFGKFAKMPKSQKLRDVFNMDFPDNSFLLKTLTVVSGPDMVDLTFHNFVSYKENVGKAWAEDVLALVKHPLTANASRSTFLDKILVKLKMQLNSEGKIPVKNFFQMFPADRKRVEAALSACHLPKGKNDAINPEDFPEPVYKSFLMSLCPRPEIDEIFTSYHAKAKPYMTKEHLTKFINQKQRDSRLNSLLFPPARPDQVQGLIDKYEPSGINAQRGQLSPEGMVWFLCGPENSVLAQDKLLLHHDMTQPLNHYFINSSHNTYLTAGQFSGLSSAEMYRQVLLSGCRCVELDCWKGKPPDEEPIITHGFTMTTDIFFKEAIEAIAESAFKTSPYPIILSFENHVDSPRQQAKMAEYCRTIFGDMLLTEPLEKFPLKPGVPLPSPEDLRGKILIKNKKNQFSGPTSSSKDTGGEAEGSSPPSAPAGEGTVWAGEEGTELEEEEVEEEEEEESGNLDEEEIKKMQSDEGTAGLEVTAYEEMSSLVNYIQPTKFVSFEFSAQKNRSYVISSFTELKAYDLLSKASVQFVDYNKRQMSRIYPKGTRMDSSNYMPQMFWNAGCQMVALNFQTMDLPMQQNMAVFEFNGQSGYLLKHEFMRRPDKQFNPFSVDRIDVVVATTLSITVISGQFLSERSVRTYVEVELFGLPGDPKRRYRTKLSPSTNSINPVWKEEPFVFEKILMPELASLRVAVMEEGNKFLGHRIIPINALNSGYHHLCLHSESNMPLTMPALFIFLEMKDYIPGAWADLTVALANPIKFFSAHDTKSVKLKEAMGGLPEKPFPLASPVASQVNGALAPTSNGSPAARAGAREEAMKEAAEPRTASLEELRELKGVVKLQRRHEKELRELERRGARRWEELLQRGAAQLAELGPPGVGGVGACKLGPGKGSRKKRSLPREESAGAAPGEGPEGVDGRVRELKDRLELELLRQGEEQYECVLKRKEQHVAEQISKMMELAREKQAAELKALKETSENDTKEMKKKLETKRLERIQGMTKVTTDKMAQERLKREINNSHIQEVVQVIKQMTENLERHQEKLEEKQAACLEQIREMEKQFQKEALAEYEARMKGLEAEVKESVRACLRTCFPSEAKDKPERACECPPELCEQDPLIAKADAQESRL

Take `O=C(Nc1cc(C(=O)N2CCNCC2)ccc1N1CCN(C(c2ccccc2)c2ccccc2)CC1)NC1CCCCC1` [Cpd 38, N-cyclohexyl-N′-[2-[4-(diphenylmethyl)-1-piperazinyl]-5-(1-piperazinylcarbonyl)phenyl]-urea]: the inhibition (in general, how much of the control response was suppressed) is listed as “about 45%” in experiment [1], 80% in experiment [5] (30 mpk dose administered i.p.), 60% in experiment [5] (30 mpk dose administered s.c.) and 53% in experiment [6]. In experiment [2], the concentration for half-maximal inhibition (IC50) (as a rule, the point on the concentration scale where inhibition reaches its midpoint) is 2.2 µM. Further, the inhibition in paws result in experiment [3] is “significant inhibition in both paws”. The % Inhibition – broadly, the relative decrease from the control value, in per cent – in experiment [4] (5 mpk i.v.) stood at 47%; in experiment [4] (30 mpk i.p.) it was 84%; in experiment [4] (30 mpk p.o.), 0%.
